Results as given in the SangsterLogP compilation.

Test: method code SF-HPLC, from DOI: 10.1002/jps.2600740210, PMID: 3989684
Details: pH 7.7

Row | SMILES | logD
1 | NS(=O)(=O)c1nc2ccc(O)cc2s1 | 0.92
2 | NS(=O)(=O)c1nc2ccccc2s1 | 1.19
3 | CCOc1ccc2nc(S(N)(=O)=O)sc2c1 | 1.91
4 | NS(=O)(=O)c1nc2ccc(OCCO)cc2s1 | 0.38
5 | NS(=O)(=O)c1nc2ccc(Cl)cc2s1 | 1.86
6 | NS(=O)(=O)c1nc2ccc([N+](=O)[O-])cc2s1 | 0.9
7 | Nc1ccc2nc(S(N)(=O)=O)sc2c1 | 0.38
8 | NS(=O)(=O)c1nc2ccc(OCc3ccccc3)cc2s1 | 3.06
9 | NS(=O)(=O)c1nc2c(Cl)cc(Cl)cc2s1 | 2.3
10 | CC(=O)Nc1ccc2nc(S(N)(=O)=O)sc2c1 | 0.68
